This assay relates to CEM cells HIV-1 protection, formazan growth assay. Nature of the assay: NCI AIDS Antiviral Assay. To be noted: for IC50: measured here: growth of uninfected CEM cells. In short, it runs like this:
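Screen of anti-HIV-1 activity in human CEM cells using a formazan-based growth measurement at five drug concentrations. Hits with 50% or greater protection were repeated, and confirmation required reproducible complete protection.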

Calls of active or inactive are those of the source.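 How the source made its calls: active means compounds giving half or more protection of infected cells from virus-caused growth loss, again on retest; inactive means the rest.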 Where a SMILES comes first, the peptide text is derived from it. Where only a bound is given, the exact number is not on record here.

Data on 65 compounds can be found in PubChem BioAssay AID179 (DTP/NCI, 2004).

Take `NC1=NN(c2ccccc2)C(=O)C1C(=O)C(=O)Nc1ccc(Cl)cc1` (stereo not given): the EC50 was more than 347 µM and the IC50 was 251 µM.

For the compound `OCC1c2ccccc2-n2nc(-c3ccccc3)c(O)c21` (stereo not given), the EC50 is more than 200 µM and the IC50 was found to be 3.31 µM.

Consider `C[C@@H](c1ccccc1)n1c(N)c(-c2ccccn2)c2ccc([N+](=O)[O-])cc2c1=O`, for which the EC50 was more than 200 µM and the IC50 turned out to be 24 µM.

Consider `Nc1cc(F)c2cccnc2c1O`, for which the EC50 was more than 200 µM and the IC50 is 11.7 µM.

`Cc1ccc(S(=O)(=O)Nn2c(-c3ccccc3)c(C#N)c(-c3ccc([N+](=O)[O-])cc3)c(C#N)c2=O)cc1`: the EC50 is more than 200 µM and the IC50 was 56.2 µM.

`CCOC(=O)c1ccc(N2C(=O)/C(=C/c3ccc(N(CCC#N)CCC#N)cc3)N=C2c2cc([N+](=O)[O-])ccc2Cl)cc1`: the EC50 is more than 12 µM and the IC50 was more than 12 µM.

Consider `C#CC1=CC(=O)C(OC)=CC1=O`, for which the EC50 is more than 200 µM and the IC50 stood at 31.6 µM.

For the compound `O=C(Nc1ccc(Cl)cc1)c1ccccc1[Se][Se]c1ccccc1C(=O)Nc1ccc(Cl)cc1`, the EC50 is 2.95 µM and the IC50 was 8.51 µM.

For the compound `CCCCCCC(O)C/C=C/CCCCCC/C(C(=O)OC)=C(/O)C(=O)OCC` (stereo not given), the EC50 is more than 83.2 µM and the IC50 was more than 83.2 µM.

Regarding `COC(=O)CC(=O)C=P(c1ccccc1)(c1ccccc1)c1ccccc1`, the EC50 is more than 347 µM and the concentration for half-maximal inhibition (IC50) was found to be 20.4 µM.

For the compound `Nc1c(-c2cccc3ccccc23)c2ccc([N+](=O)[O-])cc2c(=O)n1-c1nc2ccccc2s1`, the EC50 was more than 50.1 µM and the IC50 worked out at 0.676 µM.

For the compound `CC(C)CC(NC(=O)C(Cc1ccc(O)cc1)NC(=O)C(CO)NC(=O)C(CCC(=O)O)NC(=O)C1CCCN1C(=O)C(CC(C)C)NC(=O)C(C)NC(=O)CNC(=O)C(N)CCC(=O)O)C(=O)NCC(=O)O` (stereo not given) (H-EGALPESYLG-OH; configuration not given here), the outcome was inactive.

Regarding `O=C1CCC(c2ccccc2)(C2(c3ccccc3)CCC(=O)O2)O1` (stereo not given), the EC50 is more than 200 µM and the IC50 was determined as 151 µM.

On to `COC(C(=O)NCCCCNC(=O)C(OC)c1ccccc1)c1ccccc1` (stereo not given), for which the result was inactive.

Regarding `CC1=NC(=Cc2ccc(O)cc2)C(=O)N1n1c(-c2ccccc2)nc2ccccc2c1=O`, the EC50 was more than 200 µM and the IC50 was determined as 21.9 µM.

In the case of `Cc1ccc(=O)n(Cc2ccccc2)n1`, the EC50 is more than 1260 µM and the IC50 stood at 912 µM.

Regarding `O=C(O)C1CCC(c2ccc(Oc3ccccc3)cc2)N1` (stereo not given), the EC50 was more than 200 µM and the half-maximal inhibitory concentration (IC50) is more than 200 µM.

`CCC[CH2][Sn]([CH2]CCC)([O]N(C)C(=O)c1ccc(Br)cc1)[O]N(C)C(=O)c1ccc(Br)cc1`: the EC50 is more than 10.5 µM and the IC50 amounted to 1.78 µM.

On to `COC(=O)/C(=N\NC(N)=O)C(C(=O)C(=O)Nc1ccccc1OC)c1nc2ccc([N+](=O)[O-])cc2[nH]c1=O` (stereo not given), for which the EC50 was more than 479 µM and the IC50 was 229 µM.

In the case of `O=C1NC(=O)c2c3ccc(c21)CCc1ccc(c2c1C(=O)NC2=O)CC3`, the EC50 was more than 15.1 µM and the IC50 was more than 15.1 µM.

On to `CCc1n[nH]c(=O)n1N1C(=O)C2CCCCC2C1=O` (stereo not given), for which the EC50 is more than 200 µM and the IC50 was more than 200 µM.

Turning to `C[Si](C)(C)C1=C([Si](C)(C)C)C(Cl)(Cl)C1=O`, the EC50 was more than 20 µM and the IC50 was determined as 3.98 µM.

As for `Cc1cc(O)cc2oc(=O)c3c(O)cc(O)cc3c12`, the EC50 is more than 479 µM and the IC50 stood at 12.6 µM.

Consider `Cc1ccccc1NC(=O)Cc1csc2[n+]1C(=O)/C(=C/c1ccc([N+](=O)[O-])cc1)S2`, for which the EC50 was more than 200 µM and the IC50 came out at 38.9 µM.

Turning to `O=C(O)c1c2c(cc3c1CC1(Cc4ccccc4C1)C3)CCC2`, the EC50 is more than 200 µM and the IC50 turned out to be 45.7 µM.

On to `CCOC(=O)CNC(=O)C(CSSCC(NC(=O)OCc1ccccc1)C(=O)OC)NC(=O)C(NC(=O)OCc1ccccc1)C(C)C` (stereo not given), for which the EC50 was more than 200 µM and the half-inhibitory concentration (IC50) was 129 µM.

Turning to `CCCc1c(O)nc(Nc2nc3ccccc3[nH]2)[nH]c1=O`, the EC50 was more than 200 µM and the IC50 amounted to 63.1 µM.

For `Cc1ccc(S(=O)(=O)Nn2c(S)c(C#N)c(-c3ccc([N+](=O)[O-])cc3)c(C#N)c2=O)cc1`, the EC50 is more than 200 µM and the IC50 worked out at 30.9 µM.

On to `Cc1cn(C(C)OCCO)c(=O)[nH]c1=O` (stereo not given), for which the EC50 was more than 200 µM and the IC50 was more than 200 µM.

In the case of `NNC1=N/C(=C\c2ccco2)C(Cl)=N1`, the EC50 was more than 200 µM and the IC50 came to 38 µM.

With `CC(=O)OCc1c(O)c2c([nH]c1=O)CCc1ccccc1-2`, the EC50 is more than 25.1 µM and the IC50 was more than 25.1 µM.

For `CC1(C)[C@@H]2CC[C@]13CC(=O)O[C@@H]3C2`, the EC50 is more than 724 µM and the IC50 was more than 724 µM.

For the compound `CCOC(=O)CN1CC(C2=C(O)CN(CC(=O)OCC)C2=O)=CC1=O`, the outcome was inactive.

Consider `NC(=O)c1ncn(C2OC(CO)C(O)C2O)c1NC=O` (stereo not given), for which the EC50 is more than 200 µM and the IC50 was more than 200 µM.

As to `[N-]=[N+]=NC1CC(n2cc(Cc3ccccc3)c(N)nc2=O)OC1CO` (stereo not given), the EC50 is more than 724 µM and the IC50 is more than 724 µM.

With `COc1ccc2c(O)c(S(=O)(=O)c3ccc(C)cc3)c(=O)oc2c1`, the EC50 was more than 200 µM and the IC50 is 132 µM.

As for `O=C(O)C12C3CCCC1C2CC3` (stereo not given), the result was inactive.

Turning to `CCC(C)C(NC(=O)C(CCCN=C(N)N)NC(=O)C(CC(=O)O)NC(=O)C(Cc1ccc(O)cc1)NC(=O)C(N)CC(C)C)C(=O)NC(C(=O)NC(CC(C)C)C(=O)NC(CCCN=C(N)N)C(=O)NC(Cc1ccc(O)cc1)C(=O)O)C(C)CC` (stereo not given) (H-LYDRIILRY-OH; configuration not given here), the EC50 was more than 10.2 µM and the IC50 is more than 10.2 µM.

Regarding `COc1ccc(C2N(c3ccc(F)cc3)C(=O)N3C(c4ccc(OC)cc4)N(c4ccc(F)cc4)C(=O)N23)cc1` (stereo not given), the EC50 is more than 200 µM and the IC50 was more than 200 µM.

With `COC(=O)C12C3C4C1C1C2C3C41I` (stereo not given), the EC50 was more than 126 µM and the IC50 was more than 126 µM.

Take `Cc1cc(=O)oc2c1cc1ccc3cccc4ccc2c1c34`: the result was inactive.

For `N#CCC(C#N)N1CCOCC1` (stereo not given), the EC50 is more than 200 µM and the IC50 is more than 200 µM.

Turning to `Cc1cccc2c1CC1(Cc3c(C)cccc3C1=O)C2=O`, the EC50 was more than 200 µM and the IC50 was more than 200 µM.

Consider `CCCc1ccc(N=Cc2cc(OC)c(OC)c(OC)c2)cc1`, for which the EC50 is more than 31.6 µM and the IC50 was more than 31.6 µM.

Take `CC[C@H]1CN(C)[C@H]2Cc3c([nH]c4ccccc34)C(=O)C[C@H]1C2C(=O)OC` (stereo not given in full): the EC50 was more than 129 µM and the IC50 is more than 129 µM.

For `CC(C)(C)C1=CC(=C(c2ccc(-c3c4nc(c(-c5ccc(C(=C6C=C(C(C)(C)C)C(=O)C(C(C)(C)C)=C6)c6cc(C(C)(C)C)c(O)c(C(C)(C)C)c6)cc5)c5ccc([nH]5)c(-c5ccc(C(=C6C=C(C(C)(C)C)C(=O)C(C(C)(C)C)=C6)c6cc(C(C)(C)C)c(O)c(C(C)(C)C)c6)cc5)c5nc(c(-c6ccc(C(=C7C=C(C(C)(C)C)C(=O)C(C(C)(C)C)=C7)c7cc(C(C)(C)C)c(O)c(C(C)(C)C)c7)cc6)c6ccc3[nH]6)C=C5)C=C4)cc2)c2cc(C(C)(C)C)c(O)c(C(C)(C)C)c2)C=C(C(C)(C)C)C1=O`, the EC50 is more than 100 µM and the IC50 is more than 100 µM.

Take `Cc1ccc(-c2cc(-c3ccco3)c(C#N)c(=S)[nH]2)cc1`: the EC50 was more than 200 µM and the IC50 worked out at 120 µM.

In the case of `O=C1NNC(=O)C2C3C=CC(O3)C12` (stereo not given), the EC50 is more than 200 µM and the IC50 was more than 200 µM.

In the case of `CC(=O)Oc1cc(O)c2c(=O)c(OC(C)=O)c(-c3ccc(OC(C)=O)c(OC(C)=O)c3)oc2c1`, the EC50 was more than 200 µM and the half-inhibitory concentration (IC50) amounted to 33.9 µM.

In the case of `COc1ccc2c(c1)OCC1Cc3ccccc3OC21` (stereo not given), the EC50 is more than 200 µM and the IC50 is 53.7 µM.

On to `O=C(O)C1=C/C(=C(/c2ccccc2)c2cc(C(=O)O)c(O)c3ccccc23)c2ccccc2C1=O`, for which the result was inactive.

`COc1ccc(-c2c(C#N)c(S)n(NS(=O)(=O)c3ccc(C)cc3)c(=O)c2C#N)cc1`: the EC50 is more than 200 µM and the IC50 was 9.33 µM.

With `N#Cc1ccccc1NC(=O)/C(=N\NC(=O)c1ccncc1)C(c1cnc2ccc([N+](=O)[O-])cc2n1)[N+](=O)[O-]` (stereo not given), the EC50 is more than 479 µM and the IC50 amounted to 191 µM.

For `O=c1[nH]cnc2c1ncn2C1CC(O)C(CO)(C(F)(F)F)O1` (stereo not given), the EC50 was more than 200 µM and the IC50 worked out at 132 µM.

Take `CCCCc1c2c(nc3c1CCCC3=O)C(=O)CCC2`: the EC50 is more than 5.37 µM and the IC50 is more than 5.37 µM.

Consider `CCOCC(=O)N(C)c1cccc2c3c(n(C)c12)CCCCC3`, for which the result was inactive.

As for `COc1cccc2c1OC(c1ccc(C#N)cc1)C([N+](=O)[O-])=C2` (stereo not given), the EC50 was more than 200 µM and the IC50 stood at 1.58 µM.

For the compound `CCON1CC(C(=O)OC)=C(O)C1=O`, the EC50 was more than 200 µM and the IC50 was more than 200 µM.

For the compound `CCc1ccc(/C=C/C(=O)C2CN(CC)CCC2(O)/C=C/c2ccc(CC)cc2)cc1` (stereo not given), the EC50 was more than 200 µM and the IC50 is 4.37 µM.

On to `CC(C)=NNC(=S)NC12CC3CC(CC(C3)C1)C2`, for which the outcome was inactive.

As to `COc1ccc(CC2c3cc(OC)c(OC)c(OC)c3CC[N+]2(C)C)cc1Oc1ccc(CC2c3cc4c(c(OC)c3CCN2C)OCO4)cc1` (stereo not given), the result was inactive.

Take `O=C1OC2=C(c3ccccc3)C(=O)OC2=C1c1ccccc1`: the result was inactive.

Turning to `FC(F)(F)c1ccc(C2=N/S(c3ccccc3)=N\C(c3ccc(C(F)(F)F)cc3)=N/S(c3ccccc3)=N\2)cc1` (stereo not given), the EC50 is more than 50.1 µM and the IC50 was more than 50.1 µM.

As to `CN(CCO)CC(O)Cn1cnc2c1c(=O)n(C)c(=O)n2C` (stereo not given) (tested in a mixture with another compound), the EC50 is more than 200 µM and the IC50 is more than 200 µM.

For the compound `Cc1cn(C2OC(CO)C(CC(N)=O)C2O)c(=O)[nH]c1=O` (stereo not given), the EC50 was more than 200 µM and the IC50 is more than 200 µM.

A word on the EC50: it is the midpoint of the concentration-response curve. As a reminder, the IC50 is the point on the concentration scale where inhibition reaches its midpoint.
